In PMC11173529, “Structure–Activity Relationship Studies in a Series of Xanthine Inhibitors of SLACK Potassium Channels” (Molecules, 2024):

Molecular target: T1, WT hSLACK (Homo sapiens, UniProt Q5JUK3)
T1 construct: host or cells: CHO-K1
T1 sequence (Q5JUK3 1-1235 isoform Q5JUK3-3): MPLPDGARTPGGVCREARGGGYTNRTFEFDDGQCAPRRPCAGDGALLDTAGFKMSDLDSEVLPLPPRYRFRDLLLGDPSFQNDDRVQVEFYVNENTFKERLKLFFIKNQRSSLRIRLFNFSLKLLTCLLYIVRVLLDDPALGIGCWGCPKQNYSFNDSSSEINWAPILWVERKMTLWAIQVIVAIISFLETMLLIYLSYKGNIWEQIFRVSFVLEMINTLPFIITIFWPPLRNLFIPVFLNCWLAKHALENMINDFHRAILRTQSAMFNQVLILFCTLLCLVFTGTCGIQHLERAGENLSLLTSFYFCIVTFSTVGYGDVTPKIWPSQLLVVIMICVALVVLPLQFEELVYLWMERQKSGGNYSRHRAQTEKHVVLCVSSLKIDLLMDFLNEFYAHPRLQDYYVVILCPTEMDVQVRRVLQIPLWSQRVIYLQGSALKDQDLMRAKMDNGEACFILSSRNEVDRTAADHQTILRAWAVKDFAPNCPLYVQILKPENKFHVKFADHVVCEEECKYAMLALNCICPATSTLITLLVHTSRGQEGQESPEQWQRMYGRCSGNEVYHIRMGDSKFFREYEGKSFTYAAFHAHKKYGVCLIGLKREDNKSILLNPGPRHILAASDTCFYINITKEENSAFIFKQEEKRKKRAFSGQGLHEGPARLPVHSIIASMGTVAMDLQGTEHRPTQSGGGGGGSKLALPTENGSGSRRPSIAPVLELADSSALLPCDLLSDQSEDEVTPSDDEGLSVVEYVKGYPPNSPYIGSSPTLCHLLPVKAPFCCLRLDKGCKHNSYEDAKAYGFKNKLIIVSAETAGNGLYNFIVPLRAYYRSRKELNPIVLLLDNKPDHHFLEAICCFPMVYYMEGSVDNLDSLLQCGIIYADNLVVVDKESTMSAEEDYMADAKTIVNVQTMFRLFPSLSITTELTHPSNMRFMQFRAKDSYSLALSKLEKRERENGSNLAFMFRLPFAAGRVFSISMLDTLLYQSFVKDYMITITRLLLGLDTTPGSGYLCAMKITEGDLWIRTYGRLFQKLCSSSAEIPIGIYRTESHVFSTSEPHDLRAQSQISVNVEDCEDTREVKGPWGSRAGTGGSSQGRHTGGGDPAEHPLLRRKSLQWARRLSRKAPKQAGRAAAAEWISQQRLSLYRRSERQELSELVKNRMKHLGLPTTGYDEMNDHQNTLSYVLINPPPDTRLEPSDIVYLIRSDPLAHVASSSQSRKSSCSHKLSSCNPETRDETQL
Test: Whole-cell automated patch-clamp (APC) in CHO cells stably expressing WT hSLACK
Assay type: cell-based
Details: for IC50: whole-cell APC, CHO cells stably expressing WT hSLACK, averages n ≥ 3, read-out: SLACK IC50; for SLACK Imax: maximum inhibition at 30 µM test compound standardized to VU0606170 (set at 100%), WT hSLACK
Protocol: All new analogs were tested in our APC assay using CHO cells stably expressing WT SLACK using a concentration-response format with concentrations ranging from 0.125 to 30 μM in half-log steps and a minimum of three cells (replicates) per concentration series. […] Still, there were some notable results. For example, substitution at the 4-position was largely unfavorable regardless of the nature of the substituent (21, 24, 27, 30, and 33) apart from the 4-fluoro analog 18. […] As the trifluoromethyl group is similar in electronegativity to chlorine, but larger than both methyl and chlorine, perhaps the steric bulk of the trifluoromethyl is to blame for the poor potency of these analogs. With the exception of the fluoro (16–18) and cyano (28–30) analogs, substitution at the 3-position was favorable for SLACK activity, with 3-methoxy analog 32 standing out in this set.
Stably transfected monoclonal HEK293 cell lines expressing Slick, Maxi-K α1/β3, Maxi-K α1/β4, CaV3.2, GIRK 1/2, KV2.1, KV7.2, NaV1.7, and TASK-1 were generated as previously described. Stably transfected monoclonal HEK293 cell lines expressing hERG were generated as previously described. CHO-K1 cells expressing human Slack and disease-associated human Slack mutations, G288S and A934T, were generated by transfecting a PiggyBac TRE mammalian expression vector (VectorBuilder, Chicago, IL, USA) containing KCNT1. FuGENE 6 (Promega, Madison, WI, USA) transfection reagent and protocol, together with Opti-MEM (Thermo Fisher Scientific, Walkham, MA, USA), were utilized.
Automated patch-clamp recording was performed with a SyncroPatch 768 PE system (Nanion, Munich, Germany) as previously described. Whole-cell recordings were performed at room temperature. Cells were harvested by first washing with PBS without Mg^2+ or Ca^2+ (Gibco, Billings, MT, USA) to remove cell culture media, followed by dissociation with TryPLE (Gibco, Billings, MT, USA). Cells were then resuspended and diluted to 100,000 cells/mL in external solution. External solution contained 105 mM NaCl, 4 mM KCl, 1 mM MgCl2, 5 mM CaCl2, 10 mM HEPES, and 40 mM N-Methyl-D-glucamine chloride, titrated to pH of 7.4 and osmolarity of 300 mOsm/kg; internal solution contained 70 mM NaCl, 70 mM KF, 10 mM KCl, 5 mM EGTA, and 5 mM HEPES, titrated to a pH of 7.2 and osmolarity of 295 mOsm/kg.
The APC protocol was set as follows: Cells were held at a […] of −80 mV for 100 ms, then a ramp protocol was performed from −100 mV to 80 mV at 0.4 mV/ms, followed by holding the cell at −80 mV for another 100 ms, then steps were performed at −20 mV, 0 mV, +20 mV, +40 mV, and +60 mV for 100 ms of each step. Whole-cell currents were measured at 0 mV and normalized to current after external buffer addition. […] To obtain the concentration-response relationship graphs and IC50 values, we take the median value of the last 7 current amplitude values obtained for each set of data points collected for a given concentration at a particular step.

Structure (SMILES)	IC50	SLACK Imax
CCCCN(Cc1ccc(F)cc1)c1nc2c(c(=O)n(Cc3cccc(OC)c3)c(=O)n2C)n1C [Analog 80]	700 nM	
COc1cccc(Cn2c(=O)c3c(nc(N(Cc4cccc(F)c4)CC4CC4)n3C)n(C)c2=O)c1 [Analog 79]	1000 nM	
CN(Cc1cccc(F)c1)c1nc2c(c(=O)n(Cc3ccccc3)c(=O)n2C)n1C [Analog 48]	890 nM	100%
Cn1c(N(Cc2ccccc2)CC2CC2)nc2c1c(=O)n(Cc1ccccc1)c(=O)n2C [Analog 71]	980 nM	100%
CCCCN(Cc1ccccc1)c1nc2c(c(=O)n(Cc3ccccc3)c(=O)n2C)n1C [Analog 70]	940 nM	100%
COc1cccc(Cn2c(=O)c3c(nc(N(Cc4ccc(F)cc4)CC4CC4)n3C)n(C)c2=O)c1 [Analog 81]	1500 nM	
COc1cccc(Cn2c(=O)c3c(nc(N(C)Cc4ccccc4)n3C)n(C)c2=O)c1 [Analog 32]	800 nM	100%
CCCCN(Cc1cccc(F)c1)c1nc2c(c(=O)n(Cc3cccc(OC)c3)c(=O)n2C)n1C [Analog 78]	1200 nM	
